Results on twelve molecules are retold here after patent publication US20130143915A1, “TRIAZOLOPYRIDINES AS TYK2 INHIBITORS” (CELLZOME LIMITED, priority 2010, published 2013).

One may read the IC50 as the midpoint of a concentration-inhibition curve.

For experiment [1], the target named is T1, JAK2 (Homo sapiens, UniProt O60674).
T1 construct: endogenous in cells; host or cells: mixed Molt4/Ramos cell lysate (1:2)
The experiment can be described thus: Kinobeads assay, JAK2 (competition binding in mixed Molt4/Ramos cell lysate, dot blot detection). On the procedure:
(§1) The compounds of the present invention as described in the previous examples were tested in a Kinobeads™ assay as described for ZAP-70 (WO-A 2007/137867). Briefly, test compounds (at various concentrations) and the affinity matrix with the immobilized aminopyrido-pyrimidine ligand 24 were added to cell lysate aliquots and allowed to bind to the proteins in the lysate sample. After the incubation time the beads with captured proteins were separated from the lysate. Bound proteins were then eluted and the presence of TYK2 and JAK2 was detected and quantified using specific antibodies in a dot blot procedure and the Odyssey infrared detection system. Dose response curves for individual kinases were generated and IC50 values calculated. Kinobeads™ assays have been previously described (WO-A 2007/137867; WO-A 2006/134056).
(§2) The affinity matrix was washed two times with 15 mL of 1×DP buffer containing 0.2% NP40 (IGEPAL® CA-630, Sigma, #13021) and then resuspended in 1×DP buffer containing 0.2% NP40 (3% beads slurry).
(§3) 5×DP buffer: 250 mM Tris-HCl pH 7.4, 25% Glycerol, 7.5 mM MgCl2, 750 mM NaCl, 5 mM Na3VO4; filter the 5×DP buffer through a 0.22 μm filter and store in aliquots at −80° C. The 5×DP buffer is diluted with H2O to 1×DP buffer containing 1 mM DTT and 25 mM NaF.
(§4) Stock solutions of test compounds were prepared in DMSO. In a 96 well plate 30 μL solution of diluted test compounds at 5 mM in DMSO were prepared. Starting with this solution a 1:3 dilution series (9 steps) was prepared. For control experiments (no test compound) a buffer containing 2% DMSO was used.
(§5) Molt4 cells (ATCC catalogue number CRL-1582) and Ramos cells (ATCC catalogue number CRL-1596) were grown in 1 L Spinner flasks (Integra Biosciences, #182101) in suspension in RPMI 1640 medium (Invitrogen, #21875-034) supplemented with 10% Fetal Bovine Serum (Invitrogen) at a density between 0.15×10^6 and 1.2×10^6 cells/mL. Cells were harvested by centrifugation, washed once with 1×PBS buffer (Invitrogen, #14190-094) and cell pellets were frozen in liquid nitrogen and subsequently stored at −80° C. Cells were homogenized in a Potter S homogenizer in lysis buffer: 50 mM Tris-HCl, 0.8% NP40, 5% glycerol, 150 mM NaCl, 1.5 mM MgCl2, 25 mM NaF, 1 mM sodium vanadate, 1 mM DTT, pH 7.5. One complete EDTA-free tablet (protease inhibitor cocktail, Roche Diagnostics, 1873580) per 25 mL buffer was added. The material was dounced 10 times using a mechanized POTTER S, transferred to 50 mL falcon tubes, incubated for 30 minutes on ice and spun down for 10 minutes at 20,000 g at 4° C. (10,000 rpm in Sorvall SLA600, precooled). The supernatant was transferred to an ultracentrifuge (UZ)-polycarbonate tube (Beckmann, 355654) and spun for 1 hour at 100.000 g at 4° C. (33.500 rpm in Ti50.2, precooled). The supernatant was transferred again to a fresh 50 mL falcon tube, the protein concentration was determined by a Bradford assay (BioRad) and samples containing 50 mg of protein per aliquot were prepared. The samples were immediately used for experiments or frozen in liquid nitrogen and stored frozen at −80° C.
(§6) Cell lysate (approximately 50 mg protein per plate) was thawed in a water bath at room temperature and then stored on ice. To the thawed cell lysate 1×DP 0.8% NP40 buffer containing protease inhibitors (1 tablet for 25 mL buffer; EDTA-free protease inhibitor cocktail; Roche Diagnostics 1873580) was added in order to reach a final protein concentration of 10 mg/mL total protein. The diluted cell lysate was stored on ice. Mixed Molt4/Ramos lysate was prepared by combining one volume of Molt4 lysate and two volumes of Ramos lysate (ratio 1:2).
(§7) To a 96 well filter plate (Multiscreen HTS, BV Filter Plates, Millipore #MSBVN1250) were
(§8) added per well: 100 μL affinity matrix (3% beads slurry), 3 μL of compound solution, and 50 μL of diluted lysate. Plates were sealed and incubated for 3 hours in a cold room on a plate shaker (Heidolph tiramax 1000) at 750 rpm. […]

Experiment [2] addresses T2, TYK2 (Homo sapiens, UniProt P29597).
T2 construct: endogenous in cells; host or cells: mixed Molt4/Ramos cell lysate (1:2)
The experiment can be described thus: Kinobeads assay, TYK2 (competition binding in mixed Molt4/Ramos cell lysate, dot blot detection). On the procedure: as §1, §2, §3, §4, §5, §6, §7, §8

T1 sequence (O60674 whole entry): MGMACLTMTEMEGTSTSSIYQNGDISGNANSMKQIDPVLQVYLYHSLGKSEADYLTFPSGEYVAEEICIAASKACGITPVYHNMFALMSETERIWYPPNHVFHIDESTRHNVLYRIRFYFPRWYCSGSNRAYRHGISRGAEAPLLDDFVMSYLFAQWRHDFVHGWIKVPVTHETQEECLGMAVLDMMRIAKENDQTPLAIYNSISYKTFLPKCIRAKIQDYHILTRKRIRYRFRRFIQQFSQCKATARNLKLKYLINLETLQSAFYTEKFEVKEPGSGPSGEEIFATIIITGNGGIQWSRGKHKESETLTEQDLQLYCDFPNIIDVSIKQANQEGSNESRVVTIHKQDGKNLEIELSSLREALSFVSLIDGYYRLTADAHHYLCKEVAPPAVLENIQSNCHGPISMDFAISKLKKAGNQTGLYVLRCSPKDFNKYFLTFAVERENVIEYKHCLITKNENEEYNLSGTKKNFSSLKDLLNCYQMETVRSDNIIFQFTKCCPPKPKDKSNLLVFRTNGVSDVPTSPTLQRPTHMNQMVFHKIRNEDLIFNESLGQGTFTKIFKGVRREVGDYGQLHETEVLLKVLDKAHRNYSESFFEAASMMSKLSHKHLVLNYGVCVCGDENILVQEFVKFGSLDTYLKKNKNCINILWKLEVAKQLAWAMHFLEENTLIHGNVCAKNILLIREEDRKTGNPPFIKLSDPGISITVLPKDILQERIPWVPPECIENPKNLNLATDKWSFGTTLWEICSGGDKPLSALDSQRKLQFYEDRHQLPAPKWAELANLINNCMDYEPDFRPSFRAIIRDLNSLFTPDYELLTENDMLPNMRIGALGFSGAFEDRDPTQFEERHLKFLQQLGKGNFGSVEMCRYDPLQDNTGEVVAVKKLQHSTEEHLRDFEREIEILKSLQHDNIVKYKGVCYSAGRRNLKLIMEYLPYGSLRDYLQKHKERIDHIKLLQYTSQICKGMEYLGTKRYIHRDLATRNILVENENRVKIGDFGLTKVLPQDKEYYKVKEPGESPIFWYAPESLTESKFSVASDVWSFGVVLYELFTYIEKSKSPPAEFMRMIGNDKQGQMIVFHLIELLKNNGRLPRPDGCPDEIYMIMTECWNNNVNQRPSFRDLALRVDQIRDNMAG
T2 sequence (P29597 whole entry): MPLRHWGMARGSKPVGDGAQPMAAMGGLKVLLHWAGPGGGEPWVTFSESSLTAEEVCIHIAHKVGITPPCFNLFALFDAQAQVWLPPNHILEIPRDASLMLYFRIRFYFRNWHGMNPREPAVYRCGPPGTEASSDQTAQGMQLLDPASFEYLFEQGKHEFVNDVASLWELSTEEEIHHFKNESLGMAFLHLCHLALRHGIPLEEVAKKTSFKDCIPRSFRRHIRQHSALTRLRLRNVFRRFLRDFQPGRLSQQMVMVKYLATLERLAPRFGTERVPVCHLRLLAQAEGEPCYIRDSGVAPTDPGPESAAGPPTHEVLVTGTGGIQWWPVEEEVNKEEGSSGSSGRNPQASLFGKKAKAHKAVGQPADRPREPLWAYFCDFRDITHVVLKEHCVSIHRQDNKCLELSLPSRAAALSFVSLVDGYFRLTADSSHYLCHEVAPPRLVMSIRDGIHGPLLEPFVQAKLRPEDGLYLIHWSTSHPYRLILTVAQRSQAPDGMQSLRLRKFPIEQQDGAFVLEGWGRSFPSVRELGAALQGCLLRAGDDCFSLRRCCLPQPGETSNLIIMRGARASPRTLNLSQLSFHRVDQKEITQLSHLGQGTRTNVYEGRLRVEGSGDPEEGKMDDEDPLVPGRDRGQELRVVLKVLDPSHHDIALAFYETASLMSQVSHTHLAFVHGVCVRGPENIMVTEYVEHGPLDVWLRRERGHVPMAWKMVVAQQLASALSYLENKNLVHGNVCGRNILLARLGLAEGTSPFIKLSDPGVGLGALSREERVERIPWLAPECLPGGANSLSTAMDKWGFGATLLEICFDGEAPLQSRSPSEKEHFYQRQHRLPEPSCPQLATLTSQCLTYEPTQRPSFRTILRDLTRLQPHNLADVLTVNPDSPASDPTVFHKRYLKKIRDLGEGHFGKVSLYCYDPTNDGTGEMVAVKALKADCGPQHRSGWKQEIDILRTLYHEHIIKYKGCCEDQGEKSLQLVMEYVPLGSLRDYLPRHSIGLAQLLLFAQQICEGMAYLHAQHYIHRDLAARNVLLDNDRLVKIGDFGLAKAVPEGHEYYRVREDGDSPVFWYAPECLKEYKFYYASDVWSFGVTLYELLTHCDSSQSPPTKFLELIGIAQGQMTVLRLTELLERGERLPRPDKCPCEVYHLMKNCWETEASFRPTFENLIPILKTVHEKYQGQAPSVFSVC

Regarding `COc1ccc(-c2cccc3nc(NC(=O)C4CC4)nn23)c(C)c1` [Example 10, N-(5-(4-methoxy-2-methylphenyl)-[1,2,4]triazolo[1,5-a]pyridin-2-yl)cyclopropanecarboxamide], the 50% inhibitory concentration (IC50) in experiment [1] was over 10000 nM; in experiment [2], 100 to 1000 nM.
For `CS(=O)(=O)Nc1ccc(-c2cccc3nc(NC(=O)C4CC4)nn23)c(F)c1` [Example 9, N-(5-(2-fluoro-4-(methylsulfonamido)phenyl)-[1,2,4]triazolo[1,5-a]pyridin-2-yl)cyclopropanecarboxamide] the same measures were over 10000 nM and 100 to 1000 nM.
For `Cc1ccc(-c2cccc3nc(NC(=O)C4CC4)nn23)c(C)c1` [Example 12, N-(5-(2,4-dimethylphenyl)-[1,2,4]triazolo[1,5-a]pyridin-2-yl)cyclopropanecarboxamide] the same measures were over 10000 nM and 100 to 1000 nM.
For `Nc1ccc(-c2cccc3nc(NC(=O)C4CC4)nn23)c(Cl)c1` [Example 6, N-(5-(4-amino-2-chlorophenyl)-[1,2,4]triazolo[1,5-a]pyridin-2-yl)cyclopropanecarboxamide] the same measures were over 10000 nM and 100 to 1000 nM.
On to `O=C(Nc1nc2cccc(-c3ccc(NS(=O)(=O)C4CC4)cc3Cl)n2n1)C1CC1` [Example 11], for which the values for the IC50 in experiment [1] and in experiment [2] were over 10000 nM and under 100 nM, respectively.
For `O=C(Nc1nc2cccc(-c3ccc(Cl)cc3Cl)n2n1)C1CC1` [Example 2, N-(5-(2,4-dichlorophenyl)-[1,2,4]triazolo[1,5-a]pyridin-2-yl)cyclopropanecarboxamide] the same measures were over 10000 nM and 100 to 1000 nM.
For `COc1ccc(-c2cccc3nc(NC(=O)C4CC4)nn23)c(Cl)c1` [Example 4, N-(5-(2-chloro-4-methoxyphenyl)-[1,2,4]triazolo[1,5-a]pyridin-2-yl)cyclopropanecarboxamide] the same measures were over 10000 nM and 100 to 1000 nM.
For `COc1ccc(-c2cccc3nc(NC(=O)C4CC4)nn23)c(F)c1` [Example 1, N-(5-(2-fluoro-4-methoxyphenyl)-[1,2,4]triazolo[1,5-a]pyridin-2-yl)cyclopropane carboxamide] the same measures were over 10000 nM and 100 to 1000 nM.
For the molecule `COc1ccc(-c2cccc3nc(NC(=O)C4CC4)nn23)c(C(F)(F)F)c1` [Example 3, N-(5-(4-methoxy-2-(trifluoromethyl)phenyl)-[1,2,4]triazolo[1,5-a]pyridin-2-yl)cyclopropanecarboxamide], the IC50 in experiment [1] was over 10000 nM; in experiment [2], 1000 to 10000 nM.
Consider `Nc1ccc(-c2cccc3nc(NC(=O)C4CC4)nn23)c(F)c1` [Example 7, N-(5-(4-amino-2-fluorophenyl)-[1,2,4]triazolo[1,5-a]pyridin-2-yl)cyclopropanecarboxamide], for which the IC50 in experiment [1] was over 10000 nM; in experiment [2], 100 to 1000 nM.
For `CS(=O)(=O)c1ccc(-c2cccc3nc(NC(=O)C4CC4)nn23)c(F)c1` [Example 5, N-(5-(2-fluoro-4-(methylsulfonyl)phenyl)-[1,2,4]triazolo[1,5-a]pyridin-2-yl)cyclopropanecarboxamide] the same measures were over 10000 nM and 100 to 1000 nM.
For `CS(=O)(=O)Nc1ccc(-c2cccc3nc(NC(=O)C4CC4)nn23)c(Cl)c1` [Example 8, N-(5-(2-chloro-4-(methylsulfonamido)phenyl)-[1,2,4]triazolo[1,5-a]pyridin-2-yl)cyclopropanecarboxamide] the same measures were over 10000 nM and 100 to 1000 nM.
